Source: ChEMBL document CHEMBL1145940, “Computer modeling of selective regions in the active site of nitric oxide synthases: implication for the design of isoform-selective inhibitors” (J Med Chem, 2003)
One block for each molecule: values may come before it. Peptide text beside a SMILES is read from it.

Legend:
[1] = Inhibitory activity against neuronal nitric oxide synthase
[2] = Inhibitory activity against Inducible nitric oxide synthase
[3] = Selectivity for neuronal over endothelial nitric oxide synthase
[4] = Inhibitory activity against endothelial nitric oxide synthase (eNOS)

Structure (SMILES): NC(=O)[C@H](N)NC(=O)[C@@H](N)CCC/N=C(/N)N[N+](=O)[O-]
- Ki [1]: 1.1 µM
- Ki [2]: 61 µM
- Selectivity [3]: 237
- Ki [4]: 261 µM

Structure (SMILES): NC(=O)[C@@H](CCC/N=C(/N)N[N+](=O)[O-])NC(=O)[C@H](N)Cc1ccccc1
- Ki [1]: 17 µM
- Selectivity [3]: 5.3
- Ki [4]: 90 µM

Structure (SMILES): NCCCNC[C@@H](N)CCC/N=C(\N)N[N+](=O)[O-]
- Ki [2]: 123 µM
- Ki [4]: 411 µM

Structure (SMILES): NCCCC[C@@H](N)C(=O)N[C@H](CCC/N=C(/N)N[N+](=O)[O-])C(N)=O (HELM PEPTIDE1{[dK].[N=C(NCCC[C@@H](N[*:1])C(=O)[*:2])N[N+](=O)[O-]].[am]}$$$$V2.0)
- Ki [1]: 0.89 µM
- Ki [2]: 910 µM
- Ki [4]: 30 µM

Structure (SMILES): N=C(NCCC[C@H](N)C(=O)N[C@@H]1CN[C@@H](C(N)=O)C1)N[N+](=O)[O-]
- Ki [2]: 200 µM
- Ki [4]: 110 µM

Structure (SMILES): COC(=O)[C@@H](CCCNC(=N)N[N+](=O)[O-])NC(=O)[C@H](N)Cc1ccccc1 (HELM PEPTIDE1{[dF].[N=C(NCCC[C@@H](N[*:1])C(=O)[*:2])N[N+](=O)[O-]].[CO[*:1]]}$$$$V2.0)
- Ki [1]: 2 µM
- Ki [2]: 3600 µM
- Selectivity [3]: 2.5
- Ki [4]: 5 µM

Structure (SMILES): COC(=O)[C@@H](CCC/N=C(\N)N[N+](=O)[O-])NC(=O)[C@@H](N)Cc1ccccc1 (HELM PEPTIDE1{F.[N=C(NCCC[C@@H](N[*:1])C(=O)[*:2])N[N+](=O)[O-]].[CO[*:1]]}$$$$V2.0)
- Ki [1]: 90 µM
- Ki [2]: 7500 µM
- Selectivity [3]: 1.7
- Ki [4]: 150 µM

- Ki [1]: 3.2 µM
- Ki [2]: 0.25 µM
- Ki [4]: 226 µM
Structure (SMILES): CCCCC[C@H]1NC(=N)C[C@H]1C

Structure (SMILES): N/C(=N\CCC[C@H](N)CNCc1cccnc1)N[N+](=O)[O-]
- Ki [1]: 0.76 µM
- Ki [2]: 395 µM
- Selectivity [3]: 254
- Ki [4]: 193 µM

Structure (SMILES): NCc1ccc(NC[C@@H](N)CCC/N=C(\N)N[N+](=O)[O-])cc1
- Ki [1]: 1.37 µM
- Ki [2]: 335 µM
- Selectivity [3]: 299
- Ki [4]: 409 µM

Structure (SMILES): NC[C@H](NC(=O)[C@@H](N)CCC/N=C(\N)N[N+](=O)[O-])C(N)=O (HELM PEPTIDE1{[N=C(NCCC[C@H](N)C(=O)[*:2])N[N+](=O)[O-]].[NC[C@H](N[*:1])C(=O)[*:2]].[am]}$$$$V2.0)
- Ki [1]: 0.31 µM
- Ki [2]: 25 µM
- Ki [4]: 200 µM

Structure (SMILES): NCNC[C@@H](N)CCC/N=C(/N)N[N+](=O)[O-]
- Ki [1]: 0.12 µM
- Ki [2]: 39 µM
- Selectivity [3]: 2580
- Ki [4]: 314 µM

Structure (SMILES): NCc1ccccc1NC[C@@H](N)CCC/N=C(\N)N[N+](=O)[O-]
- Ki [1]: 5.55 µM
- Ki [2]: 29.3 µM
- Selectivity [3]: 7.17
- Ki [4]: 39.8 µM

Structure (SMILES): NCCCC[C@H](N)C(=O)N[C@H](CCC/N=C(\N)N[N+](=O)[O-])C(N)=O (HELM PEPTIDE1{K.[N=C(NCCC[C@@H](N[*:1])C(=O)[*:2])N[N+](=O)[O-]].[am]}$$$$V2.0)
- Ki [1]: 1.7 µM
- Ki [2]: 4700 µM
- Ki [4]: 229 µM

Structure (SMILES): NCCc1ccc(NC[C@@H](N)CCC/N=C(\N)N[N+](=O)[O-])cc1
- Ki [1]: 1.66 µM

Structure (SMILES): [H]/N=C(/NCCC[C@H](N)C(=O)N[C@H]1CNC(C(N)=O)C1)N[N+](=O)[O-] (stereo partly drawn)
- Ki [1]: 0.074 µM
- Ki [2]: 29.5 µM

Structure (SMILES): N/C(=N/CCC[C@H](N)CNc1cccnc1)N[N+](=O)[O-]
- Ki [1]: 0.55 µM
- Ki [2]: 141 µM
- Selectivity [3]: 951
- Ki [4]: 523 µM

Structure (SMILES): NCc1cccc(NC[C@@H](N)CCC/N=C(\N)N[N+](=O)[O-])c1
- Ki [1]: 0.21 µM
- Ki [2]: 80 µM
- Ki [4]: 194 µM

Structure (SMILES): N/C(=N\CCC[C@@H](NC(=O)[C@H](N)Cc1ccccc1)C(=O)O)N[N+](=O)[O-] (HELM PEPTIDE1{[dF].[N=C(NCCC[C@@H](N[*:1])C(=O)O)N[N+](=O)[O-]]}$$$$V2.0)
- Ki [1]: 17 µM
- Ki [2]: 13600 µM
- Selectivity [3]: 5.3
- Ki [4]: 90 µM

- Ki [2]: > 300 µM
- Ki [4]: 110 µM
Structure (SMILES): Cc1c(C)c2c(c(C)c1O)CC[C@@](C)(C(=O)C1CCC(c3ccc(NC(=N)c4cccs4)cc3)CC1)O2 (stereo partly drawn)
